# “And” between values parts separate entries of the source, which are not always exact repeats. Identical values can stand only once. Like-named read-outs stand apart in the source and are kept apart here. Ends that are not written are not given here. * marks the point of attachment. FITC = O=C1OC2(c3ccc(O)cc3Oc3cc(O)ccc32)c2ccc(NC(=S)*)cc21; Ahx = NCCCCCC(=O)O
# Experiments:
# [1] = tested on: ComR;sXIP (ComS 11-17) (Streptococcus mutans UA159;Streptococcus mutans); assay: fluorescence polarization
# [2] = tested on: ComR;sXIP (ComS 11-17) (Streptococcus mutans UA159;Streptococcus mutans); assay: fluorescence polarization; remark: listed apart in the source
# ComR = assay: Fluorescence polarization: FITC-labeled XrpA-N1 direct binding to ComR; parameters: species or system Streptococcus mutans; conditions: 10 nM FITC-labeled XrpA-N1, increasing concentrations of sXIP
# CcpA = assay: Fluorescence polarization: FITC-labeled XrpA-N1 binding to CcpA; parameters: species or system Streptococcus mutans; conditions: 10 nM probe, increasing purified protein, 10 μM sXIP
# SppA (SMU.508) = assay: Fluorescence polarization: FITC-labeled XrpA-N1 binding to SppA; parameters: species or system Streptococcus mutans; conditions: 10 nM probe, increasing purified protein, 10 μM sXIP
substance,measurement,setting,value
ATGGGACATTTATGTCCTGTCCCCCACAGGACATAAATGTCCCAT [PcomX ECom-box stem-loop probe],Kd,[1],169 nM and 165 nM
same,Kd,[2],147 nM
GLDWWSL [sXIP],effect on fluorescent XrpA-N1 affinity for ComR,ComR,no effect
{FITC-Ahx}-MIQNCISILRHFLITLK [FITC-labeled XrpA-N1],interaction of FITC-labeled XrpA-N1 with CcpA,CcpA,neither showed any ability to interact
same,interaction of FITC-labeled XrpA-N1 with SppA,SppA (SMU.508),neither showed any ability to interact

# — article PMC6158096 (Molecular microbiology, 2018)
